{
  "source": "paper PMC4335872",
  "about": "“Pharmacokinetic-Pharmacodynamic Analysis of Spiroindolone Analogs and KAE609 in a Murine Malaria Model” (Antimicrobial Agents and Chemotherapy, 2015)",
  "key": {"[1]": {"assay": "Oral PK and PK modeling of KAE609 in NMRI mice", "type": "in vivo, female NMRI mice", "details": "for AUC(0-inf) / Cmax: NMRI, 5.3 mg/kg, single oral dose 5.3 mg/kg", "method": "For the in vivo PK studies, female NMRI mice (specific pathogen free) were obtained from Janvier, Le Genest-Saint-Isle, France. To investigate the influence of the disease status on the pharmacokinetics, a single oral dose (5.3 mg/kg) of KAE609 was given to both the infected and uninfected NMRI mice, and the PK parameters were determined. The infected mice were dosed at 24 h postinfection. The formulation, sampling times (0.25, 0.5, 1, 2, 4, 8, 24, and 48 h postdose), extraction, and analysis were similar to those in the method described above.\nPopulation PK modeling of the concentration-time data of KAE609 in mice was performed using naive pooling without intersubject variability using NONMEM version VI 2.0. A two-compartment pharmacokinetic model with first-order absorption and nonlinear elimination was built to fit the concentration-time data of KAE609 generated in (infected and healthy) NMRI mice at 5.3 mg/kg. In the model, clearance (CL) was described by equation 2, where Cp is compound plasma concentration, the maximum metabolic rate (Vmax)/Km ratio is the maximal clearance achievable when Cp is ≪Km, and Km corresponds to the compound concentration at which the clearance reached 50% of the Vmax/Km. The primary model parameters derived were plasma clearance (CL) (in liters/h/kg), intercompartmental clearance (Q) (in liters/h/kg), central and peripheral volume of distribution (Vc and Vp, respectively) (in liters/kg), and the absorption rate constant (Ka) (in h^−1). The diagnostic plots were analyzed for closeness to and randomness along the line of identity on the observed versus predicted concentration plot, as well as randomness along the weighted residual zero line on the predicted concentration or time. […] Based on the estimated primary model parameters (Vmax, Km, Vc, Vp, Q, and Ka), the plasma concentration-time profiles and secondary pharmacokinetic parameters, such as Cmax, AUC at different doses, and dosing regimens, were simulated using the Berkeley Madonna software (version 8.0.1) (Berkeley Madonna, University of California, Berkeley, CA. 2 CL=Vmax/(Km+Cp)"}, "[2]": {"system": "P. vivax and P. falciparum", "details": "cited from earlier work"}, "[3]": {"details": "female, mouse, plasma, po, infected NMRI mice"}, "[4]": {"details": "female, mouse, plasma, po, uninfected NMRI mice"}, "[5]": {"details": "two-compartment model, NMRI mice 5.3 mg/kg p.o."}, "[6]": {"details": "patients, 30 mg daily for 3 days"}},
  "data": [
    {"smiles": "C[C@H]1Cc2c([nH]c3cc(Cl)c(F)cc23)[C@@]2(N1)C(=O)Nc1ccc(Cl)cc12", "note": "[(+)-7 (KAE609)]", "values": [
      {"measurement": "Fold higher Cmax and exposure in NMRI mice than in CD-1 mice", "setting": "[1]; comparable oral dose (5 mg/kg)", "value": 4, "unit": "fold"},
      {"measurement": "AUC(0-inf)", "setting": "[1]; [3]", "value": 12600, "unit": "ng·h/mL"},
      {"measurement": "Cmax", "setting": "[1]; [3]", "value": 960, "unit": "ng/mL"},
      {"measurement": "AUC(0-inf)", "setting": "[1]; [4]", "value": 13200, "unit": "ng·h/mL"},
      {"measurement": "Cmax", "setting": "[1]; [4]", "value": 1010, "unit": "ng/mL"},
      {"measurement": "Km", "setting": "[1]; female, mouse, plasma, po, two-compartment model, nonlinear elimination, NMRI mice 5.3 mg/kg p.o.", "value": 0.0341, "unit": "µg/mL"},
      {"measurement": "Difference in PK profiles between infected and uninfected NMRI mice", "setting": "[1]; oral 5.3 mg/kg", "value": "No significant difference"},
      {"measurement": "Ka (absorption rate constant)", "setting": "[1]; [5]", "value": 1.78, "unit": "h⁻¹"},
      {"measurement": "Q (intercompartmental clearance)", "setting": "[1]; [5]", "value": 10.2, "unit": "mL/min/kg"},
      {"measurement": "Vc (central volume of distribution)", "setting": "[1]; [5]", "value": 4.4, "unit": "L/kg"},
      {"measurement": "Vp (peripheral volume of distribution)", "setting": "[1]; [5]", "value": 5.1, "unit": "L/kg"},
      {"measurement": "Vmax", "setting": "[1]; two-compartment model, nonlinear elimination, NMRI mice 5.3 mg/kg p.o.", "value": 143, "unit": "µg/h/kg"},
      {"measurement": "Clinical outcome", "setting": "[2]; 3-day dosing regimen of 30 mg daily, P. vivax and P. falciparum malaria patients", "value": "clearing parasitemia"},
      {"measurement": "AUC (average of two cohorts)", "setting": "[2]; [6]", "value": "14,300 ng · h/ml"},
      {"measurement": "Cmax (average of two cohorts)", "setting": "[2]; [6]", "value": 855, "unit": "ng/mL"}
    ]}
  ]
}
